Assay results reported in patent US20240382552A1, “COMPOSITION FOR PREVENTING, AMELIORATING OR TREATING SLEEP DISORDER OR INSOMNIA, CONTAINING EXTRACT OF ROASTED CITRUS BYPRODUCT AS ACTIVE INGREDIENT” (priority 2021, published 2024).
Structures can show the parent of a compound that is named as a salt. Marks after values point to notes of the source that are not given here.

Assays:
[1] = system: mice to which a sleeping dose of pentobarbital (45 mg/kg, i.p.) was administered; assay: Pentobarbital-induced sleep test; settings: pentobarbital 45 mg/kg i.p. 45 min after oral sample; DH 30 mg/kg, lime extracts 100 mg/kg, lemon extracts 300 mg/kg; n=10
[2] = system: C57BL/6N mice; assay: Sleep architecture analysis (EEG/EMG); format: in vivo; settings: Example 1 100 mg/kg, Example 2 300 mg/kg, zolpidem 10 mg/kg p.o.
Experimental: After the accommodation period of 1 week, electrodes were inserted into the
C57BL/6N mice for measurement of electroencephalograms (EEGs) and electromyograms (EMGs). After anesthetizing the mouse with pentobarbital (50 mg/kg, i.p.), the head was fixed in a stereotaxic instrument. After incising the subcutaneous connective tissue, a mouse EEG/EMG Headmount (Pinnacle Technology Inc, Oregon, USA) was inserted for EEG and EMG recording. After fixing with dental cement followed by suturing and disinfection, antibiotics were injected for 3 days to prevent inflammation. The mice were allowed to recover for 7 days. For accommodation to the measurement environment, the recording apparatus was connected from 4 days prior to the measurement. After orally administering the sample and waiting for 5 minutes for sedation, EEG and EMG were recorded for 24 hours from 17:00 using PAL-8200 (Pinnacle Technology Inc., Oregon, USA). Sampling rate was set at 200 Hz (epoch time: 10 s). Filtering range was 0.1-25 Hz for EEG and 10-100 Hz for EMG. Sleep architecture was analyzed according to the fast Fourier transform (FFT) algorithm using SleepSign (Ver. 3.0, Kissei Comtec, Nagono, Japan).
Sleep architecture analysis was conducted to evaluate the effect of the roasted citrus byproduct extracts according to an exemplary embodiment of the present disclosure on the quantity and quality of sleep. […]

SMILES	Sleep duration (min) [1]	Sleep latency (min) [1]	delta activity during non-REM sleep [2]	time after oral administration for which NREM sleep was significantly increased ([2]; 24 h EEG recording)
CN(C)CCC=C1c2ccccc2COc2ccccc21 [Doxepin hydrochloride (DH), Doxepin hydrochloride]	121.2*** min	2.9*** min	–	–
Cc1ccc(-c2nc3ccc(C)cn3c2CC(=O)N(C)C)cc1 [zolpidem]	–	–	significantly decreased delta activity	6 h
